By MIC is commonly meant the lowest concentration that inhibits growth of the organism.

Each structure is given as a SMILES string. ≈ marks a conversion by molar mass, not a printed value.

The subject of one test is MRSA N315. As to the kind of experiment: In vitro infectivity assay (MIC), broth dilution, Exp. Ex. 1-1. The format is cell-based, Staphylococcus aureus. As to conditions: Staphylococcus aureus, MRSA, 24 h, read-out: MIC MRSA N315. Put shortly: (§1)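 CLSI broth microdilution: strains inoculated at about 10^5 CUF/[…] in Mueller-Hinton broth with 0.85% NaCl, incubated 35° C. for 24 hours. MIC read as lowest inhibitory concentration; measured three times.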
Background: In broth dilution the organism is exposed to a series of concentrations in liquid medium.

For a further test, the system named is MRSA OM481. The description is as above. The format is cell-based, Staphylococcus aureus. To be noted: Staphylococcus aureus, MRSA, 24 h, read-out: MIC MRSA OM481. Put shortly:
as §1

A further test concerns MRSA OM58. Described as above. The format is cell-based, Staphylococcus aureus. To be noted: Staphylococcus aureus, MRSA, 24 h, read-out: MIC MRSA OM58. Put shortly: as §1
Another test relates to MSSA FDA 209P. Described as above. The format is cell-based, Staphylococcus aureus. As to conditions: Staphylococcus aureus, 24 h, read-out: MIC MSS 209P. Put shortly: as §1
The subject of the next test is VISA Mu50. The test is described as above. As to conditions: Staphylococcus aureus, VISA, 24 h, read-out: MIC VISA Mu50. The format is cell-based, Staphylococcus aureus. Put shortly:
as §1

For the next test, the system named is VRE FN-1. The description is as above. The format is cell-based, enterococci. To be noted: Enterococcus, VRE, 24 h, read-out: MIC VRE FN-1. Put shortly: as §1
A further test relates to VRE NCTC12201. Described as above. The format is cell-based, enterococci. To be noted: Enterococcus, 24 h, read-out: MIC VRE NCTC12201. Put shortly: as §1
In test [1] the test system is Vancomycin intermediate-resistant Staphylococcus aureus Mu50. Kind of test: In vitro infectivity assay (MIC), Exp. Ex. 2-1. The format is cell-based. To be noted: Staphylococcus aureus, VISA, 24 h, read-out: MIC VISA Mu50. Put shortly:
(§2)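 CLSI broth dilution; Mueller-Hinton + 0.85% NaCl; inoculum ~10^5 CUF/[…]; 35° C, 24 h; MIC read, n=3.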

Test [2] relates to Vancomycin-resistant enterococci FN-1. As to the kind of experiment: In vitro infectivity assay (MIC), Exp. Ex. 2-1. To be noted: Enterococcus, VRE, 24 h, read-out: MIC VRE FN-1. The format is cell-based. Put shortly: as §2
The test system of test [3] is Vancomycin-resistant enterococci NCTC 12201. As to the kind of experiment: In vitro infectivity assay (MIC), Exp. Ex. 2-1. The format is cell-based. As to conditions: Enterococcus, NCTC 12201 / VRE, 24 h, read-out: MIC VRE NCTC 12201. Put shortly:
as §2

Test [4] concerns Methicillin sensitive S. aureus 209P. Kind of test: In vitro infectivity assay (MIC), Exp. Ex. 2-1. As to conditions: Staphylococcus aureus, 209P / MSSA, 24 h, read-out: MIC MSSA 209P. The format is cell-based, Staphylococcus aureus. Put shortly: as §2
The subject of test [5] is Methicillin-resistant S. aureus N315. Kind of test: In vitro infectivity assay (MIC), Exp. Ex. 2-1. The format is cell-based, Staphylococcus aureus. To be noted: Staphylococcus aureus, MRSA, 24 h, read-out: MIC MRSA N315. Put shortly:
as §2

For test [6], the system named is Methicillin-resistant S. aureus OM481. Kind of test: In vitro infectivity assay (MIC), Exp. Ex. 2-1. The format is cell-based, Staphylococcus aureus. To be noted: Staphylococcus aureus, MRSA, 24 h, read-out: MIC MRSA OM481. Put shortly: as §2
Test [7] has as its system Methicillin-resistant S. aureus OM584. Kind of test: In vitro infectivity assay (MIC), Exp. Ex. 2-1. The format is cell-based, Staphylococcus aureus. As to conditions: Staphylococcus aureus, MRSA, 24 h, read-out: MIC MRSA OM584. Put shortly: as §2
Test [8] deals with Streptococcus pneumoniae R6. Kind of test: In vitro infectivity assay (MIC), Exp. Ex. 2-1. The format is cell-based. As to conditions: Streptococcus pneumoniae, R6, 24 h, read-out: MIC S. Pneumoniae R6.
Test [9] has as its system Methicillin-resistant S. aureus COL. Kind of test: In vitro infectivity assay (MIC), Exp. Ex. 2-1. The format is cell-based. As to conditions: Staphylococcus aureus, MRSA, 24 h, read-out: MIC MRSA COL.

With `CN[C@H](CC(C)C)C(=O)N[C@H]1C(=O)N[C@@H](CC(N)=O)C(=O)N[C@H]2C(=O)N[C@H]3C(=O)N[C@H](C(=O)N[C@H](C(=O)O)c4cc(O)cc(O)c4-c4cc3ccc4O)[C@H](O)c3ccc(c(Cl)c3)Oc3cc2cc(c3O[C@@H]2O[C@H](CO)[C@@H](O)[C@H](O)[C@H]2O[C@H]2C[C@](C)(N)[C@H](O)[C@H](C)O2)Oc2ccc(cc2Cl)[C@H]1O` [Vancomycin, vancomycin, reference compound], the MIC in the test on MRSA N315 was 0.25 µg/mL (≈ 0.173 µM); in the test with MRSA OM481, 0.25 µg/mL (≈ 0.173 µM); in the test with MRSA OM58, 0.25 µg/mL (≈ 0.173 µM); in the test with MSSA FDA 209P, 0.25 µg/mL (≈ 0.173 µM); with VISA Mu50, 8 µg/mL (≈ 5.52 µM); with VRE FN-1 it was over 128 µg/mL. Further, the MIC with VRE NCTC12201 was over 128 µg/mL; in [1], 8 µg/mL (≈ 5.52 µM); in [2], over 128 µg/mL; in test [3], over 128 µg/mL; in [4], 0.25 µg/mL (≈ 0.173 µM); in [5] it was 0.25 µg/mL (≈ 0.173 µM). For the same compound, the MIC in test [6], in [7], in [8] and in test [9] was 0.25 µg/mL (≈ 0.173 µM) each time.
